The subject of this assay is acetaminophen-induced liver disorder. Put plainly: Suppressive effect on acetaminophen-induced liver disorder in the rat (s-GOT, s-GPT). It is filed as in vivo. The following applies: for inhibition rate of s-GOT / inhibition rate of s-GPT / inhibition at 102 mg/kg: versus 5% gum arabic control; for s-GOT / s-GPT: male Wistar rats, blood 24 h later, mean ± S.E. (n=4-8); for inhibition at 102 mg/kg: Rattus norvegicus. As to the method:
Male Wistar rats with a body weight of about 180 g were fasted for 24 hours and orally administered, through a cannula for oral administration, 87-349 mg of oxidized-type glutathione isopropyl ester (hereinafter also referred to as "GSSG isopropyl"), which is one of the compounds of the present invention, 102 mg of reduced-type glutathione isopropyl ester 1/2 H2 SO4.1/2H2 O (87 mg as reduced type glutathione isopropyl ester (hereinafter also referred to as "GSH isopropyl")) or 5% gum arabic solution as a control, respectively. 1 hour later, 400 mg/kg of acetaminophen, a compound which may induce disorders in the liver, was intra peritoneally administered. 24 hours later, the rats were anesthetized with pentobarbital and the blood was collected from the abdominal aorta, and s-GOT and s-GPT were measured to compare the hepatic disorder suppressing effect of GSSG isopropyl with that of GSH isopropyl.

The mark [1] stands for this setting: 87 mg/kg [0.125 mmol/kg] oral 1 h before acetaminophen 400 mg/kg i.p.
Where [2] appears, read: 174 mg/kg [0.25 mmol/kg] oral 1 h before acetaminophen 400 mg/kg i.p.
The mark [3] stands for this setting: 349 mg/kg [0.5 mmol/kg] oral 1 h before acetaminophen 400 mg/kg i.p.
Where [4] appears, read: 102 mg/kg [0.25 mmol/kg] oral 1 h before acetaminophen 400 mg/kg i.p.

The inhibition is the relative decrease from the control value, in per cent.

Like-named read-outs stand apart in the source and are kept apart here.

Turning to “γ-L-GLUTAMYL-L-CYSTEI[…] ESTER DISULFIDE [GSSG isopropyl]”, the “hepatic disorder suppressing effect compared with 102 mg/kg of GSH isopropyl sulfate” value (87 mg/kg oral, acetaminophen-treated rats) is listed as “almost equivalent”. Besides, the “inhibition rate of s-GOT” value is 95.0 (87 mg/kg oral), 95.9 (174 mg/kg oral) and 98.6 (349 mg/kg oral). Besides, the “inhibition rate of s-GPT” value runs as follows: (87 mg/kg oral) 94.9; (174 mg/kg oral) 96.6; (349 mg/kg oral) 99.1. For the same compound, the “elevation of s-GOT and s-GPT” value (87-349 mg/kg oral, acetaminophen-treated rats) is reported as “significantly suppressed dose-dependently”. Besides, the s-GOT reads like this: under setting [1], 430 ± 236 IU/1; under setting [2], 352 ± 104 IU/1; under setting [3], 119 ± 11 IU/1. Moreover, the s-GPT runs as follows: under setting [1], 231 ± 152 IU/1; under setting [2], 154 ± 46 IU/1; under setting [3], 39 ± 3 IU/1.
With `CC(C)OC(=O)CNC(=O)[C@H](CS)NC(=O)CC[C@H](N)C(=O)O.O=S(=O)(O)O` [GSH isopropyl sulfate, γ-L-glutamyl-L-cysteinylglycine isopropyl ester sulfate, reference compound], the “elevation of s-GOT and s-GPT” value (102 mg/kg oral, acetaminophen-treated rats) is “significantly suppresses”. Further, for the setting “102 mg/kg oral, read-out: inhibition rate of s-GOT”, the inhibition at 102 mg/kg is 94.5%. For the same compound, the inhibition at 102 mg/kg (102 mg/kg oral, read-out: inhibition rate of s-GPT) came to 94.4%. Under setting [4], the s-GOT was found to be 475 ± 156 IU/1 and the s-GPT is 253 ± 97 IU/1.
